Experimental findings from ChEMBL document CHEMBL1909528, “Synthesis and 2D QSAR of O-sulphonated β-aminols derivatives as novel antifungal and antibacterial agents” (Bioorg Med Chem Lett, 2011) are described below.

A word on the MIC: it is the smallest concentration in the dilution series that meets the test's criterion for growth inhibition.

In one test the test system is Candida albicans. The test can be described thus: Antifungal activity against Candida albicans by broth microdilution method. Type of test: functional, organism-based. On the technique in general: Broth dilution looks for growth in wells or tubes with falling amounts of substance.
Another test has as its system Cryptococcus neoformans. The test can be described thus: Antifungal activity against Cryptococcus neoformans by broth microdilution method. Type of test: functional.
A further test relates to Sporothrix schenckii. The test is described as follows: Antifungal activity against Sporothrix schenckii by broth microdilution method. The format is functional, organism-based.
Test [1] deals with Trichophyton mentagrophytes. The test is described as follows: Antifungal activity against Trichophyton mentagrophytes by broth microdilution method. The format is functional, organism-based.
For the next test, the system named is Aspergillus fumigatus. The test can be described thus: Antifungal activity against Aspergillus fumigatus by broth microdilution method. The format is functional.
For another test, the system named is Candida parapsilosis. The test is described as follows: Antifungal activity against Candida parapsilosis ATCC 22019 by broth microdilution method. The format is functional. Particulars: Lodderomyces parapsilosis.
Another test relates to Escherichia coli. The test is described as follows: Antibacterial activity against Escherichia coli ATCC 9637 by broth microdilution method. The format is functional, organism-based.

For `CC(C)(C)OC(=O)N(Cc1ccccc1)CC(OS(=O)(=O)c1ccc(C#N)cc1)c1ccccc1` (stereo not drawn), the MIC was under 50 µM against Candida albicans; over 50 µM in the test with Cryptococcus neoformans; under 50 µM in the test on Sporothrix schenckii; under 50 µM in test [1]; over 50 µM in the test with Aspergillus fumigatus; over 50 µM against Candida parapsilosis. This compound also returned an MIC in the test on Escherichia coli of under 50 µM. The IC50 in the test with Candida albicans (read-out: IC50) is 8.59 µM; with Candida albicans (read-out: pIC50 (converted)), 8.59 µM; with Sporothrix schenckii (read-out: IC50), 32.7 µM; with Sporothrix schenckii (read-out: pIC50 (converted)), 32.7 µM; in test [1] (read-out: IC50), 9.48 µM; in test [1] (read-out: pIC50 (converted)), 9.48 µM. Also, the IC50 with Escherichia coli (read-out: IC50) and with Escherichia coli (read-out: pIC50 (converted)) was 18.5 µM in each case.

As to `Cc1ccc(S(=O)(=O)OC(CN(Cc2ccccc2)C(=O)OC(C)(C)C)c2ccccc2)cc1` (stereo not drawn), the MIC with Candida albicans was under 50 µM; in the test with Cryptococcus neoformans it was over 50 µM; against Sporothrix schenckii, under 50 µM; in test [1], under 50 µM; against Aspergillus fumigatus, over 50 µM; against Candida parapsilosis it was over 50 µM. This compound also showed an MIC with Escherichia coli of under 50 µM. For the same compound, the IC50 in the test with Candida albicans (read-out: IC50) was 4.07 µM; in the test on Candida albicans (read-out: pIC50 (converted)), 4.07 µM; with Sporothrix schenckii (read-out: IC50) it was 32.7 µM; in the test with Sporothrix schenckii (read-out: pIC50 (converted)), 32.7 µM; in test [1] (read-out: IC50), 11.7 µM; in test [1] (read-out: pIC50 (converted)), 11.7 µM. For the same compound, the IC50 in the test with Escherichia coli (read-out: IC50) and with Escherichia coli (read-out: pIC50 (converted)) was 7.5 µM each time.

`CC(C)(C)OC(=O)N(Cc1ccccc1)CC(OS(=O)(=O)c1ccc([N+](=O)[O-])cc1[N+](=O)[O-])c1ccccc1` (stereo not drawn): the MIC was under 50 µM with Candida albicans; over 50 µM in the test on Cryptococcus neoformans; over 50 µM against Aspergillus fumigatus; over 50 µM in the test on Candida parapsilosis; under 50 µM in the test with Escherichia coli. The IC50 with Candida albicans (read-out: IC50) is 0.54 µM; with Escherichia coli (read-out: IC50), 23.3 µM; in the test on Escherichia coli (read-out: pIC50 (converted)) it was 23.3 µM.

`CC(C)(C)OC(=O)N(Cc1ccccc1)CC(OS(=O)(=O)c1cccc2ccccc12)c1ccccc1` (stereo not drawn): the MIC with Cryptococcus neoformans is over 50 µM; in test [1], under 50 µM; in the test on Aspergillus fumigatus it was over 50 µM; in the test on Candida parapsilosis, over 50 µM; against Escherichia coli, under 50 µM. For the same compound, the IC50 was 5.48 µM in test [1] (read-out: IC50), 5.48 µM in test [1] (read-out: pIC50 (converted)), 1.26 µM in the test on Escherichia coli (read-out: IC50) and 1.26 µM in the test with Escherichia coli (read-out: pIC50 (converted)).

With `CC(C)(C)OC(=O)N(Cc1ccccc1)CC(OS(=O)(=O)c1ccc2ccccc2c1)c1ccccc1` (stereo not drawn), the MIC is over 50 µM against Cryptococcus neoformans; under 50 µM in test [1]; over 50 µM against Aspergillus fumigatus; over 50 µM with Candida parapsilosis; under 50 µM against Escherichia coli. The IC50 in test [1] (read-out: IC50) is 2.12 µM; in test [1] (read-out: pIC50 (converted)), 2.12 µM; with Escherichia coli (read-out: IC50), 3.54 µM; in the test on Escherichia coli (read-out: pIC50 (converted)), 3.54 µM.

In the case of `CC(C)(C)OC(=O)N(Cc1ccccc1)CC(OS(=O)(=O)c1c(Cl)cccc1Cl)c1ccccc1` (stereo not drawn), the MIC was over 50 µM against Cryptococcus neoformans; under 50 µM against Sporothrix schenckii; over 50 µM with Aspergillus fumigatus; over 50 µM against Candida parapsilosis; under 50 µM against Escherichia coli. The IC50 in the test with Sporothrix schenckii (read-out: IC50) is 11.4 µM; with Sporothrix schenckii (read-out: pIC50 (converted)), 11.4 µM; in the test with Escherichia coli (read-out: IC50), 3.13 µM; in the test on Escherichia coli (read-out: pIC50 (converted)), 3.13 µM.

Consider `CC(C)(C)OC(=O)N(Cc1ccccc1)CC(OS(=O)(=O)c1ccc(F)cc1)c1ccccc1` (stereo not drawn), for which the MIC was under 50 µM in the test on Candida albicans; over 50 µM against Cryptococcus neoformans; under 50 µM against Sporothrix schenckii; under 50 µM in test [1]; over 50 µM against Aspergillus fumigatus; over 50 µM against Candida parapsilosis. Also, in the test with Escherichia coli, the MIC was under 50 µM. For the same compound, the IC50 is 1.52 µM in the test on Candida albicans (read-out: IC50); 1.52 µM in the test on Candida albicans (read-out: pIC50 (converted)); 8.66 µM with Sporothrix schenckii (read-out: IC50); 8.66 µM in the test on Sporothrix schenckii (read-out: pIC50 (converted)); 0.46 µM in test [1] (read-out: IC50); 0.83 µM with Escherichia coli (read-out: IC50). For the same compound, in the test on Escherichia coli (read-out: pIC50 (converted)), the IC50 was 1.2 µM.

As for `CC(C)(C)OC(=O)N(Cc1ccccc1)CC(OS(=O)(=O)c1ccc([N+](=O)[O-])cc1)c1ccccc1` (stereo not drawn), the MIC in the test with Cryptococcus neoformans was over 50 µM; in test [1], under 50 µM; in the test on Aspergillus fumigatus, over 50 µM; in the test with Candida parapsilosis it was over 50 µM; against Escherichia coli, under 50 µM. Further, the IC50 in test [1] (read-out: IC50) was 5.73 µM; in test [1] (read-out: pIC50 (converted)), 5.73 µM; with Escherichia coli (read-out: IC50) it was 9.02 µM; with Escherichia coli (read-out: pIC50 (converted)) it was 9.02 µM.
